Laboratory results as given in ChEMBL document CHEMBL6153067, “Transition State Analogs of Human DNPH1 Reveal Two Electrophile Migration Mechanisms” (J Med Chem, 2025).
Calls of active or inactive are those of the source. The calls are words filed in the database; no cut-off is given here.

Legend:
[1] = molecular target: T1, 5-hydroxymethyl-dUMP N-hydrolase (Homo sapiens, UniProt O43598); assay: Competitive inhibition of wild-type truncated human DNPH1 extracted from Escherichia coli BL21DE3 using hmdUMP as substrate preincubated for 30 mins followed by substrate addition measured after 60 mins in presence of NADH
T1 sequence (O43598 whole entry): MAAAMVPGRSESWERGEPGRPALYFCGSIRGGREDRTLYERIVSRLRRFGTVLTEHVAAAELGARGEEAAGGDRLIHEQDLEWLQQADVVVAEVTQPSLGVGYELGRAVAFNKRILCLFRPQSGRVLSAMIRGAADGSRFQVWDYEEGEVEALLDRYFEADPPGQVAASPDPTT

[2] = molecular target: T1, 5-hydroxymethyl-dUMP N-hydrolase; assay: Inhibition of wild-type truncated human DNPH1 extracted from Escherichia coli BL21DE3 assessed as decrease in hmdUMP hydrolysis preincubated for 30 mins followed by hmdUMP addition measured after 30 mins in presence of NADH
[3] = molecular target: T2, 5-hydroxymethyl-dUMP N-hydrolase (Homo sapiens) (UniProt O43598); details: dose 1.0 mM, time 30.0 min
T2 sequence (whole entry): T1 sequence (O43598 whole entry)

[4] = molecular target: T1, 5-hydroxymethyl-dUMP N-hydrolase; assay: Binding affinity to wild-type truncated human DNPH1 extracted from Escherichia coli BL21DE3 assessed as dissociation constant by ITC analysis
[5] = molecular target: T1, 5-hydroxymethyl-dUMP N-hydrolase; assay: Binding affinity to DNPH1 (unknown origin) assessed as equilibrium constant

Ki [1] [µM]	SMILES	other results
> 50	O=P(O)(O)OC[C@H]1NC[C@H](O)[C@@H]1O	–
36.8	O=c1[nH]cccc1CN1C[C@H](COP(=O)(O)O)[C@@H](O)C1	–
> 50	O=P(O)(O)OC[C@H]1CNC[C@@H]1OP(=O)(O)O	–
> 50	O=P(O)(O)OC[C@H]1NCC[C@@H]1O	–
–	O=c1[nH]c(=O)n([C@@H]2O[C@H](COP(=O)(O)O)[C@@H](O)[C@H]2O)cc1CO	Kd [1]: 0.6 µM; IC50 [2]: 1.3 µM; inhibition [3]: Active; Potent Than Ump
> 50	O=P(O)(O)OC[C@H]1CN(Cc2ccccc2)C[C@@H]1O	–
3.67	O=P(O)(O)OC[C@H]1CN(Cc2cncc(CO)c2)C[C@@H]1O	–
25.8	O=P(O)(O)OC[C@H]1CN(Cc2ccc(F)nc2F)C[C@@H]1O	–
5.14	O=P(O)(O)OC[C@H]1CN(Cc2cc(CO)c(F)nc2F)C[C@@H]1O	–
20.7	O=P(O)(O)OC[C@H]1CN(Cc2cccnc2)C[C@@H]1O	–
5.17	O=c1cc(CN2C[C@H](COP(=O)(O)O)[C@@H](O)C2)[nH]c(=O)[nH]1	–
–	O=c1[nH]c(=O)n([C@@H]2O[C@H](COP(=O)(O)O)[C@@H](O)[C@@H]2F)cc1CO	Kd [1]: 0.57 µM; IC50 [2]: 1.5 µM; Kd [4]: 0.43 µM; inhibition [3]: Active; Potent Than Ump
6.5	Nc1nc2c(CN3C[C@H](COP(=O)(O)O)[C@@H](O)C3)c[nH]c2c(=O)[nH]1	–
2.85	Nc1ncnc2c(CN3C[C@H](COP(=O)(O)O)[C@@H](O)C3)c[nH]c12	–
> 50	O=c1[nH]c(CN2C[C@H](COP(=O)(O)O)[C@@H](O)C2)c(CO)c(=O)[nH]1	–
–	O=c1[nH]c(=O)n([C@@H]2O[C@H](COP(=O)(O)O)[C@@H](O)[C@@H]2O)cc1CO	Kd [1]: > 50 µM; IC50 [2]: > 100 µM
0.61	O=c1[nH]cc(CN2C[C@H](COP(=O)(O)O)[C@@H](O)C2)cc1CO	–
3.3	O=P(O)(O)OC[C@H]1CNC[C@@H]1O	Kd [4]: 1.3 µM
12.3	COc1nc(OC)c(CN2C[C@H](COP(=O)(O)O)[C@@H](O)C2)cc1F	–
–	O=c1[nH]c(=O)n([C@H]2C[C@H](O)[C@@H](CP(=O)(O)O)O2)cc1CO	Kd [5]: 6.3 µM
